According to ChEMBL document CHEMBL1782045, “Discovery, synthesis, and investigation of the antitumor activity of novel piperazinylpyrimidine derivatives” (Eur J Med Chem, 2011):

Tests used:
SW-620 [1] = assay: Cytotoxicity against human SW620 cells after 48 hrs by sulforhodamine B assay; assay type: cell-based; settings: sw-620, 48 h
HCC 2998 = assay: Cytotoxicity against human HCC2998 cells after 48 hrs by sulforhodamine B assay; assay type: cell-based; settings: hcc 2998, 48 h
UACC-257 = assay: Cytotoxicity against human UACC257 cells after 48 hrs by sulforhodamine B assay; assay type: cell-based; settings: uacc-257, 48 h
M14 = assay: Cytotoxicity against human M14 cells after 48 hrs by sulforhodamine B assay; assay type: cell-based; settings: m14, 48 h
[2] = molecular target: Epithelial discoidin domain-containing receptor 1 (Homo sapiens) (UniProt Q08345); assay: Binding affinity to human DDR1 at 10 uM incubated for 1 hr by kinase binding assay relative to untreated control
Epithelial discoidin domain-containing receptor 1 (Homo sapiens), sequence (Q08345 whole entry, the tested form may be a part): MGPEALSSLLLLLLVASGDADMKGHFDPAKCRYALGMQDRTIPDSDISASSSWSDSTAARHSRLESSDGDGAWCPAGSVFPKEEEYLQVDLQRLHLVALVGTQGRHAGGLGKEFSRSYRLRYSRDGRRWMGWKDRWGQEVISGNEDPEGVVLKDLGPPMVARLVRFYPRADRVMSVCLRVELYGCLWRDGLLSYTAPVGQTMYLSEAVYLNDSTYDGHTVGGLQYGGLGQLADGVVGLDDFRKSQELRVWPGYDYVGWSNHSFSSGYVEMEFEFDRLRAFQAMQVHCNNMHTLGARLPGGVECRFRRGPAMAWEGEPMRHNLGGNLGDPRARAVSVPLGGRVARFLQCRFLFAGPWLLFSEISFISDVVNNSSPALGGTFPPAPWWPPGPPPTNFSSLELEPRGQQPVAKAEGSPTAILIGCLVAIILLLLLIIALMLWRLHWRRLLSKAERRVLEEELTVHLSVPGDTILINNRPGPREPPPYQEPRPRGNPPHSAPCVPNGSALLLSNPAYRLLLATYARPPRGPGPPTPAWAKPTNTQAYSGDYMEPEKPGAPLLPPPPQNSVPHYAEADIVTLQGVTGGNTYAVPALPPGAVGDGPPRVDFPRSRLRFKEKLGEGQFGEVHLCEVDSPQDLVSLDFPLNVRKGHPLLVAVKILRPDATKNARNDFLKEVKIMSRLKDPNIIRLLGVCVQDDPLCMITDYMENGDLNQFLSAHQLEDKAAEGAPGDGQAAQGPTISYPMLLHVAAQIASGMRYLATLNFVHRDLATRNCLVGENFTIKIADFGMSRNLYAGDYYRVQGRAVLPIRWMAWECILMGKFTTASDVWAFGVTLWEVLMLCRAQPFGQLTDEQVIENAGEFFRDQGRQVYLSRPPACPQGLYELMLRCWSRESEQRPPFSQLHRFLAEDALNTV

HL-60(TB) = assay: Cytotoxicity against human HL-60(TB) cells after 48 hrs by sulforhodamine B assay; assay type: cell-based
OVCAR-3 = assay: Cytotoxicity against human OVCAR3 cells after 48 hrs by sulforhodamine B assay; assay type: cell-based; settings: ovcar-3, 48 h
UACC-62 = assay: Growth inhibition of human UACC62 cells after 48 hrs by sulforhodamine B assay; assay type: functional; settings: UACC-62, 48 h
KM12 = assay: Cytotoxicity against human KM12 cells after 48 hrs by sulforhodamine B assay; assay type: cell-based; settings: km12, 48 h
[3] = molecular target: RAC-beta serine/threonine-protein kinase (Homo sapiens) (UniProt P31751); assay: Inhibition of human PKBbeta using gamma-33P-ATP as substrate assessed as enzyme functional activity at 1 uM by scintillation counting relative to untreated control; parameters: scale not given: the % may be the effect or the level left
RAC-beta serine/threonine-protein kinase (Homo sapiens), sequence (P31751 whole entry): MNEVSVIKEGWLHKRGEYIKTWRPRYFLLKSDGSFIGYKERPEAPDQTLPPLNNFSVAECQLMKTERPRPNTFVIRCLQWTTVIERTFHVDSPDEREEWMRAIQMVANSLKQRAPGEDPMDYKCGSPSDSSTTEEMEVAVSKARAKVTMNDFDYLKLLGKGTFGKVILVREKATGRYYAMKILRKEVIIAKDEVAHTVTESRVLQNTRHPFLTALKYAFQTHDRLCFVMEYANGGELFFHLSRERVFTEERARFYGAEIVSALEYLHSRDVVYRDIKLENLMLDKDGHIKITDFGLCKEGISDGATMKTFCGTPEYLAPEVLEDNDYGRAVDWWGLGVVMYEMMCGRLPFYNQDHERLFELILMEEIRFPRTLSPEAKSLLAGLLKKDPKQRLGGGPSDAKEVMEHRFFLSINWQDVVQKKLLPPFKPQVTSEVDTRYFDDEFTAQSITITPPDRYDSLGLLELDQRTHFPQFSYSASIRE

LOX IMVI = assay: Cytotoxicity against human LOXIMVI cells after 48 hrs by sulforhodamine B assay; assay type: cell-based
NCI-H522 = assay: Growth inhibition of human NCI-H522 cells after 48 hrs by sulforhodamine B assay; assay type: functional; settings: NCI-H522, 48 h
[4] = test system: Receptor-type tyrosine-protein kinase FLT3 (Homo sapiens), P36888 [UNDEFINED MUTATION]; assay: Binding affinity to human FLT3 ITD mutant at 10 uM incubated for 1 hr by kinase binding assay relative to untreated control
Receptor-type tyrosine-protein kinase FLT3 (Homo sapiens), P36888 [UNDEFINED MUTATION], sequence (P36888 whole entry, looked up, change not shown): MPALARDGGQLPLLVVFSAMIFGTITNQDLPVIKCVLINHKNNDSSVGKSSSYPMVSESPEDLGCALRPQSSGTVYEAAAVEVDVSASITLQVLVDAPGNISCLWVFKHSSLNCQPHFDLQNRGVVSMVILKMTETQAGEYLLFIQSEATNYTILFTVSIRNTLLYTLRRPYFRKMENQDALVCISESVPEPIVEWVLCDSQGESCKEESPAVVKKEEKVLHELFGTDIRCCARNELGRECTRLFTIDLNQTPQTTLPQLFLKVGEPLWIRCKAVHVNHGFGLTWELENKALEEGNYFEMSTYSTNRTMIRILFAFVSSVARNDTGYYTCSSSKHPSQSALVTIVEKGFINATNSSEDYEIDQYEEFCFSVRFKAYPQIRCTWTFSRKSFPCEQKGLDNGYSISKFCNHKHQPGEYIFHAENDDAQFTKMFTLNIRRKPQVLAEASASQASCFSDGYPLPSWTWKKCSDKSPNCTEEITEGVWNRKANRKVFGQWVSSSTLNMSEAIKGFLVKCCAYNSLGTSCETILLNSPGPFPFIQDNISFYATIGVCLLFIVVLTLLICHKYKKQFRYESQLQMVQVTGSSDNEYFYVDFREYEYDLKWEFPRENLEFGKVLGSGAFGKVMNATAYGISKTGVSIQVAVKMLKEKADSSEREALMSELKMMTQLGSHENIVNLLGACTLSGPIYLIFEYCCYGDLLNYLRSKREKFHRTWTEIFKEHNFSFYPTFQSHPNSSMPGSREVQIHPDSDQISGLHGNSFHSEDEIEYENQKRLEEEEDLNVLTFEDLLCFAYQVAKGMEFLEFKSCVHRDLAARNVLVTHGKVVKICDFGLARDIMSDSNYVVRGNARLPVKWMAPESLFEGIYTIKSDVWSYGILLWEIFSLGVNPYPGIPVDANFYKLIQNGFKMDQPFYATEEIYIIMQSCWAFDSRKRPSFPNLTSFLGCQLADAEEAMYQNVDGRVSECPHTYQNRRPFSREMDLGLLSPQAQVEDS

[5] = molecular target: T1, Mitogen-activated protein kinase 12 (Homo sapiens) (UniProt P53778); assay: Binding affinity to human p38-gamma at 10 uM incubated for 1 hr by kinase binding assay relative to untreated control
T1 sequence (whole entry): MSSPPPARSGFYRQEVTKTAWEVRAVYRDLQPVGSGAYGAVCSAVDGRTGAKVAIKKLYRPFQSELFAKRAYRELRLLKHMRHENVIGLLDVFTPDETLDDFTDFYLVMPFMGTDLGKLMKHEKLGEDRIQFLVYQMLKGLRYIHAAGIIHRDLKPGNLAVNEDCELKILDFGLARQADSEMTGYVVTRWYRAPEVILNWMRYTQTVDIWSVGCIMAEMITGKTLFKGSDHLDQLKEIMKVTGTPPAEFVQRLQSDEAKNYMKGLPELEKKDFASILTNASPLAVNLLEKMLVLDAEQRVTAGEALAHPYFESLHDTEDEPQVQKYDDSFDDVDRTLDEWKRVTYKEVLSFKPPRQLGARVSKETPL

[6] = molecular target: Casein kinase I isoform gamma-2 (Homo sapiens) (UniProt P78368); assay: Binding affinity to human CSNK1G2 at 10 uM incubated for 1 hr by kinase binding assay relative to untreated control
Casein kinase I isoform gamma-2 (Homo sapiens), sequence (P78368 whole entry, looked up, canonical isoform): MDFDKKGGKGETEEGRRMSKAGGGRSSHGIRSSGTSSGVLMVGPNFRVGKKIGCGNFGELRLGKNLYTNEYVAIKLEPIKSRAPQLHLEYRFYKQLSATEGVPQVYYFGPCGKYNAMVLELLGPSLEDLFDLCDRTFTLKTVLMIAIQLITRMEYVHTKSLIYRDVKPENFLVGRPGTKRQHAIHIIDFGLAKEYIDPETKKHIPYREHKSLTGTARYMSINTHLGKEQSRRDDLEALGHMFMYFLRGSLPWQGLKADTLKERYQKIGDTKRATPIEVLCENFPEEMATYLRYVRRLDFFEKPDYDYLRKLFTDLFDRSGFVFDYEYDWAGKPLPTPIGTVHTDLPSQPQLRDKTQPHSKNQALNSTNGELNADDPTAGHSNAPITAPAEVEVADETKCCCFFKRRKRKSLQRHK

Malme-3M = assay: Cytotoxicity against human MALME-3M cells after 48 hrs by sulforhodamine B assay; assay type: cell-based
K562 [7] = assay: Cytotoxicity against human K562 cells after 48 hrs by sulforhodamine B assay; assay type: cell-based; settings: k562, 48 h
SW-620 [8] = assay: Growth inhibition of human SW620 cells after 48 hrs by sulforhodamine B assay; assay type: functional; settings: SW-620, 48 h
HOP-92 = assay: Cytotoxicity against human HOP92 cells after 48 hrs by sulforhodamine B assay; assay type: cell-based; settings: hop-92, 48 h
786-0 = assay: Growth inhibition of human 786-0 cells after 48 hrs by sulforhodamine B assay; assay type: functional; settings: 786-0, 48 h
A549 [9] = assay: Growth inhibition of human A549 cells after 48 hrs by sulforhodamine B assay; assay type: functional; settings: A549, 48 h
SF-268 = assay: Cytotoxicity against human SF268 cells after 48 hrs by sulforhodamine B assay; assay type: cell-based; settings: sf-268, 48 h
HCT-15 = assay: Growth inhibition of human HCT15 cells after 48 hrs by sulforhodamine B assay; assay type: functional; settings: HCT-15, 48 h
HOP-62 = assay: Growth inhibition of human HOP62 cells after 48 hrs by sulforhodamine B assay; assay type: functional; settings: HOP-62, 48 h
DU-145 [10] = assay: Cytotoxicity against human DU145 cells after 48 hrs by sulforhodamine B assay; assay type: cell-based; settings: du-145, 48 h
MOLT-4 = assay: Cytotoxicity against human MOLT4 cells after 48 hrs by sulforhodamine B assay; assay type: cell-based; settings: molt-4, 48 h
SNB-75 = assay: Growth inhibition of human SNB75 cells after 48 hrs by sulforhodamine B assay; assay type: functional; settings: SNB-75, 48 h
BT-549 = assay: Cytotoxicity against human BT549 cells after 48 hrs by sulforhodamine B assay; assay type: cell-based; settings: bt-549, 48 h
DU-145 [11] = assay: Growth inhibition of human DU145 cells after 48 hrs by sulforhodamine B assay; assay type: functional; settings: DU-145, 48 h
U-251 = assay: Growth inhibition of human U251 cells after 48 hrs by sulforhodamine B assay; assay type: functional; settings: U-251, 48 h
OVCAR-5 = assay: Cytotoxicity against human OVCAR5 cells after 48 hrs by sulforhodamine B assay; assay type: cell-based; settings: ovcar-5, 48 h
MDA-MB-468 = assay: Cytotoxicity against human MDA-MB-468 cells after 48 hrs by sulforhodamine B assay; assay type: cell-based; settings: mda-mb-468, 48 h
[12] = molecular target: Casein kinase I isoform alpha (Homo sapiens) (UniProt P48729); assay: Binding affinity to human CSNK1A1 at 10 uM incubated for 1 hr by kinase binding assay relative to untreated control
Casein kinase I isoform alpha (Homo sapiens), sequence (P48729 2-337 limits assumed): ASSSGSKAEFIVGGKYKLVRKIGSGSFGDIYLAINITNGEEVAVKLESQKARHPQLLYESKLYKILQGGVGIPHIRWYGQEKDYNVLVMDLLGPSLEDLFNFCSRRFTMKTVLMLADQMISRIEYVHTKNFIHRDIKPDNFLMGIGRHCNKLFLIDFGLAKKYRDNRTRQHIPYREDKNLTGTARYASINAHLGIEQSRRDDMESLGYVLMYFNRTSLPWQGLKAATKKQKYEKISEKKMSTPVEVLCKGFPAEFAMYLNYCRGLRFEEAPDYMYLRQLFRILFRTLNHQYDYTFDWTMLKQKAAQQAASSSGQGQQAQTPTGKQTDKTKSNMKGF

NCI-H322M = assay: Growth inhibition of human NCI-H322M cells after 48 hrs by sulforhodamine B assay; assay type: functional
[13] = molecular target: Casein kinase I isoform gamma-3 (Homo sapiens) (UniProt Q9Y6M4); assay: Binding affinity to human CSNK1G3 at 10 uM incubated for 1 hr by kinase binding assay relative to untreated control
Casein kinase I isoform gamma-3 (Homo sapiens), sequence (Q9Y6M4 whole entry, looked up, canonical isoform): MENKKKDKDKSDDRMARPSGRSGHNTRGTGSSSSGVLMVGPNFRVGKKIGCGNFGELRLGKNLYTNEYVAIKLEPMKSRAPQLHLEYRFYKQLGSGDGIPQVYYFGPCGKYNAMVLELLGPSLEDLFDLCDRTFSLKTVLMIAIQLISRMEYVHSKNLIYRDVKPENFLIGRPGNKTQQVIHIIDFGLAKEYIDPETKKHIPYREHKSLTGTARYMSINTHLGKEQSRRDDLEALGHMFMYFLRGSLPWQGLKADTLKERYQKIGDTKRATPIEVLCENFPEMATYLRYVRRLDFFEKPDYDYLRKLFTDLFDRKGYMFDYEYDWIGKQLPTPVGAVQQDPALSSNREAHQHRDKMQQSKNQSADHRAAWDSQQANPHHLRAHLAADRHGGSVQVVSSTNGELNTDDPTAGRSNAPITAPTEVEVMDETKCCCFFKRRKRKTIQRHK

K562 [14] = assay: Growth inhibition of human K562 cells after 48 hrs by sulforhodamine B assay; assay type: functional; settings: K562, 48 h
A549 [15] = assay: Cytotoxicity against human A549 cells after 48 hrs by sulforhodamine B assay; assay type: cell-based; settings: a549, 48 h
NCI-H23 = assay: Cytotoxicity against human NCI-H23 cells after 48 hrs by sulforhodamine B assay; assay type: cell-based; settings: nci-h23, 48 h
NCI-H460 = assay: Growth inhibition of human NCI-H460 cells after 48 hrs by sulforhodamine B assay; assay type: functional; settings: NCI-H460, 48 h
SNB-19 = assay: Cytotoxicity against human SNB19 cells after 48 hrs by sulforhodamine B assay; assay type: cell-based; settings: snb-19, 48 h
HT-29 = assay: Growth inhibition of human HT-29 cells after 48 hrs by sulforhodamine B assay; assay type: functional; settings: HT-29, 48 h

CCc1cnc(N2CCN(C(=O)c3ccc(CNc4ncnc5ccccc45)cc3)CC2)nc1
LC50 (SW-620 [1]): > 100 µM | LC50 (HCC 2998): > 100 µM | LC50 (UACC-257): > 100 µM | LC50 (M14): 93.7 µM | Activity [2]: > 50% | LC50 (HL-60(TB)): > 100 µM | LC50 (OVCAR-3): > 100 µM | TGI (UACC-62): 80.9 µM | LC50 (KM12): 53.8 µM | Activity [3]: 82% | LC50 (LOX IMVI): 97.3 µM | TGI (NCI-H522): 55.4 µM | Activity [4]: > 50% | Activity [5]: > 50% | Activity [6]: 18% | LC50 (Malme-3M): > 100 µM | LC50 (K562 [7]): > 100 µM | TGI (SW-620 [8]): 45.1 µM | LC50 (HOP-92): > 100 µM | TGI (786-0): 54.8 µM | TGI (A549 [9]): > 100 µM | LC50 (SF-268): > 100 µM | TGI (HCT-15): > 100 µM | TGI (HOP-62): > 100 µM | LC50 (DU-145 [10]): > 100 µM | LC50 (MOLT-4): > 100 µM | TGI (SNB-75): 58.2 µM | LC50 (BT-549): > 100 µM | TGI (DU-145 [11]): > 100 µM | TGI (U-251): > 100 µM | LC50 (OVCAR-5): > 100 µM | LC50 (MDA-MB-468): > 100 µM | Activity [12]: 36% | TGI (NCI-H322M): > 100 µM | Activity [13]: 24% | TGI (K562 [14]): > 100 µM | LC50 (A549 [15]): > 100 µM | LC50 (NCI-H23): > 100 µM | TGI (NCI-H460): 30.7 µM | LC50 (SNB-19): > 100 µM | TGI (HT-29): 83.2 µM
